Experimental data published in patent US20250059179A1, “Heterocyclic Compounds and Methods of Use” (AMGEN INC., priority 2021, published 2025).

What was measured:
[1] = biological target: His-tagged KRAS G12D protein (Homo sapiens, UniProt P01116, G12D); assay: KRAS G12D TR-FRET Assay; type: binding; conditions: biotinylated KRPep-2d substrate, 10 μM GDP;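 note: europium anti-His antibody paired with streptavidin-d2 as FRET partners, initial 30 min incubation, then peptide 1 h and detection reagents 1 h, all at room temperature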
[2] = biological target: GDP-bound KRAS protein (aa 1-169), containing both G12D and C118A amino acid substitutions (Homo sapiens, UniProt P01116, C118A/G12D); assay: KRAS G12D Coupled Nucleotide Exchange Assay; type: biochemical; conditions: 2 h compound pre-incubation; SOS-mediated nucleotide exchange, cRAF AlphaScreen readout;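 note: IC50 obtained by fitting the AlphaScreen signal with a four-parameter logistic curve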
Chain of GDP-bound KRAS protein (aa 1-169), containing both G12D and C118A amino acid substitutions (P01116 1-169 isoform P01116-2 G12D/C118A): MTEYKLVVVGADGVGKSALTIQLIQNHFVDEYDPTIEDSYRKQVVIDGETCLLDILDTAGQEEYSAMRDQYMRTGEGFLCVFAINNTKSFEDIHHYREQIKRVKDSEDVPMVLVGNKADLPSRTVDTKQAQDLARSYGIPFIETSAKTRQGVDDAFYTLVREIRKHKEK

Chain of His-tagged KRAS G12D protein (P01116 1-188 isoform P01116-2 G12D): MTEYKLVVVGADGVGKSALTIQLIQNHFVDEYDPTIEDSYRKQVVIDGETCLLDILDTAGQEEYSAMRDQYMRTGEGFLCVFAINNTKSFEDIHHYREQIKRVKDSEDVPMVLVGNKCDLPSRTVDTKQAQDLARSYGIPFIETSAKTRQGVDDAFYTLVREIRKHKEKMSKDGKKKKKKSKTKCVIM

Row | IC50 [1] [µM] | Avg 2 h Coupled Exchange IC50 [2] [µM] | SMILES
1 | 1.97 | 0.388 | CN1CCC[C@H]1COc1nc(N2CCNC[C@@H]2CO)c2cc(Cl)c(-c3cccc4sc(N)nc34)c(F)c2n1 [Example 37, ((2R)-1-(7-(2-aminobenzo[d]thiazol-4-yl)-6-chloro-8-fluoro-2-(((S)-1-methylpyrrolidin-2-yl)methoxy)quinazolin-4-yl)piperazin-2-yl)methanol]
2 | 0.168 | 0.114 | CN1CCC[C@H]1COc1nc(N2CCCNC(=O)C2)c2cc(Cl)c(-c3cccc4sc(N)nc34)c(F)c2n1 [Example 22, 4-(7-(2-aminobenzo[d]thiazol-4-yl)-6-chloro-8-fluoro-2-(((S)-1-methylpyrrolidin-2-yl)methoxy)quinazolin-4-yl)-1,4-diazepan-2-one]
3 | – | 3.37 | Nc1nc2c(-c3c(Cl)cc4c(N5CCNCC5)nc(N5CC6(C5)NCC6(F)F)nc4c3F)cccc2s1 [Example 118, 4-[6-chloro-2-(3,3-difluoro-1,6-diazaspiro[3.3]heptan-6-yl)-8-fluoro-4-piperazin-1-yl-quinazolin-7-yl]-1,3-benzothiazol-2-amine]
4 | – | 1.9 | Nc1nc2c(-c3c(Cl)cc4c(N5CCNCC5)nc(N5CCN6CCC5C6)nc4c3F)cccc2s1 (stereo not shown) [Example 107, 4-[6-chloro-8-fluoro-4-piperazin-1-yl-2-[1,4-diazabicyclo[3.2.1]octan-4-yl]quinazolin-7-yl]-1,3-benzothiazol-2-amine]
5 | – | 3.67 | CCOC(=O)c1ccn(C2CN(c3nc(N4CCNCC4)c4cc(Cl)c(-c5cccc6sc(N)nc56)c(F)c4n3)C2)n1 [Example 119, ethyl 1-[1-[7-(2-amino-1,3-benzothiazol-4-yl)-6-chloro-8-fluoro-4-piperazin-1-yl-quinazolin-2-yl]azetidin-3-yl]pyrazole-3-carboxylate]
6 | – | 3.11 | Nc1nc2c(-c3c(Cl)cc4c(N5CCNCC5)nc(N5CC(n6ccnc6)C5)nc4c3F)cccc2s1 [Example 116, 4-[6-chloro-8-fluoro-2-(3-imidazol-1-ylazetidin-1-yl)-4-piperazin-1-yl-quinazolin-7-yl]-1,3-benzothiazol-2-amine]
7 | – | 1.71 | CN1CCO[C@@H]2CN(c3nc(N4CCNCC4)c4cc(Cl)c(-c5cccc6sc(N)nc56)c(F)c4n3)C[C@@H]21 (relative stereo) [Example 103, 4-(6-chloro-8-fluoro-2-(cis-4-methylhexahydropyrrolo[3,4-b][1,4]oxazin-6(2H)-yl)-4-(piperazin-1-yl)quinazolin-7-yl)benzo[d]thiazol-2-amine]
8 | – | 0.496 | Nc1nc2c(-c3c(Cl)cc4c(N5CCNCC5)nc(N5CC(N6CCC(O)CC6)C5)nc4c3F)cccc2s1 [Example 83, 1-[1-[7-(2-amino-1,3-benzothiazol-4-yl)-6-chloro-8-fluoro-4-piperazin-1-yl-quinazolin-2-yl]azetidin-3-yl]piperidin-4-ol]
9 | – | 3.32 | CC1(C)CN(C2CN(c3nc(N4CCNCC4)c4cc(Cl)c(-c5cccc6sc(N)nc56)c(F)c4n3)C2)CCO1 [Example 117, 4-[6-chloro-2-[3-(2,2-dimethylmorpholin-4-yl)azetidin-1-yl]-8-fluoro-4-piperazin-1-yl-quinazolin-7-yl]-1,3-benzothiazol-2-amine]
10 | – | 1.53 | CN1CCO[C@H]2CN(c3nc(N4CCNCC4)c4cc(Cl)c(-c5cccc6sc(N)nc56)c(F)c4n3)C[C@@H]21 (relative stereo) [Example 101, 4-(6-chloro-8-fluoro-2-(trans-4-methylhexahydropyrrolo[3,4-b][1,4]oxazin-6(2H)-yl)-4-(piperazin-1-yl)quinazolin-7-yl)benzo[d]thiazol-2-amine]
11 | – | 1.4 | CN1CCCC2C1CCN2c1nc(N2CCNCC2)c2cc(Cl)c(-c3cccc4sc(N)nc34)c(F)c2n1 (stereo not shown) [Example 99, 4-(6-chloro-8-fluoro-2-(4-methyloctahydro-1H-pyrrolo[3,2-b]pyridin-1-yl)-4-(piperazin-1-yl)quinazolin-7-yl)benzo[d]thiazol-2-amine]
12 | – | 3.9 | Nc1nc2c(-c3c(Cl)cc4c(N5CCNCC5)nc(N5CC6(CCNC6)C5)nc4c3F)cccc2s1 [Example 120, 4-[6-chloro-2-(2,7-diazaspiro[3.4]octan-2-yl)-8-fluoro-4-piperazin-1-yl-quinazolin-7-yl]-1,3-benzothiazol-2-amine]
13 | – | 0.706 | COC1CCN(C2CN(c3nc(N4CCNCC4)c4cc(Cl)c(-c5cccc6sc(N)nc56)c(F)c4n3)C2)CC1 [Example 88, 4-[6-chloro-8-fluoro-2-[3-(4-methoxy-1-piperidyl)azetidin-1-yl]-4-piperazin-1-yl-quinazolin-7-yl]-1,3-benzothiazol-2-amine]
14 | – | 0.359 | CC1(N)CN(c2nc(N3CCNCC3)c3cc(Cl)c(-c4cccc5sc(N)nc45)c(F)c3n2)C1 [Example 79, 4-[2-(3-amino-3-methyl-azetidin-1-yl)-6-chloro-8-fluoro-4-piperazin-1-yl-quinazolin-7-yl]-1,3-benzothiazol-2-amine]
15 | – | 3.95 | Nc1nc2c(-c3c(Cl)cc4c(N5CCNCC5)nc(N5CCCC(c6nccs6)C5)nc4c3F)cccc2s1 (stereo not shown) [Example 121, 4-[6-chloro-8-fluoro-4-piperazin-1-yl-2-[3-thiazol-2-yl-1-piperidyl]quinazolin-7-yl]-1,3-benzothiazol-2-amine]
16 | – | 1.5 | CN(C1COC1)C1CN(c2nc(N3CCNCC3)c3cc(Cl)c(-c4cccc5sc(N)nc45)c(F)c3n2)C1 [Example 100, 4-[6-chloro-8-fluoro-2-[3-[methyl(oxetan-3-yl)amino]azetidin-1-yl]-4-piperazin-1-yl-quinazolin-7-yl]-1,3-benzothiazol-2-amine]
17 | – | 1.14 | CN(C)C1CCN(c2nc(N3CCNCC3)c3cc(Cl)c(-c4cccc5sc(N)nc45)c(F)c3n2)C1 (stereo not shown) [Example 94, 4-[6-chloro-8-fluoro-4-piperazin-1-yl-2-[3-(dimethylamino)pyrrolidin-1-yl]quinazolin-7-yl]-1,3-benzothiazol-2-amine]
18 | – | 1.27 | CNC1CCN(c2nc(N3CCNCC3)c3cc(Cl)c(-c4cccc5sc(N)nc45)c(F)c3n2)C1 (stereo not shown) [Example 97, 4-[6-chloro-8-fluoro-4-piperazin-1-yl-2-[3-(methylamino)pyrrolidin-1-yl]quinazolin-7-yl]-1,3-benzothiazol-2-amine]
19 | – | 1.18 | CN(C)[C@@H]1CCN(c2nc(N3CCNCC3)c3cc(Cl)c(-c4cccc5sc(N)nc45)c(F)c3n2)C1 [Example 95, 4-[6-chloro-2-[(3R)-3-(dimethylamino)pyrrolidin-1-yl]-8-fluoro-4-piperazin-1-yl-quinazolin-7-yl]-1,3-benzothiazol-2-amine]
20 | – | 0.28 | Nc1nc2c(-c3c(Cl)cc4c(N5CCNCC5)nc(N5CC(N6CCCCC6)C5)nc4c3F)cccc2s1 [Example 78, 4-[6-chloro-8-fluoro-4-piperazin-1-yl-2-[3-(1-piperidyl)azetidin-1-yl]quinazolin-7-yl]-1,3-benzothiazol-2-amine]
